Data from patent US11414387B2, “Oxoacridinyl acetic acid derivatives and methods of use” (Stingthera, Inc., priority 2017, dated 2022).
pIC50: −log10 of the molar value.

What was measured:
mSTING-CTD = mSTING-CTD (Mus musculus (Mouse), UniProt Q3TBT3); experiment: Mouse STING protein FP competition concentration response assay; format: binding
Method: (§1) A validated STING ligand, such as c-di-GMP, which is labeled with a read-out signal (e.g., a fluorescence signal such as fluorescein), is mixed with STING-CTD (e.g., mouse STING-CTD or human STING-CTD) with or without the presence of a compound of the present application. Changes in the read-out signal are measured (e.g., by fluorescence anisotropy) to determine the binding of the compound to STING-CTD.
Fluorescein labeled c-di-GMP was mixed with mSTING-CTD with or without the presence of a compound of the present application in PBS in black 384-well plates (10 μL per well). The fluorescence anisotropy was determined on a PerkinElmer EnVisions multi-mode plate reader. The plate can be read immediately after mixing the reagents or after a few hours without change of signals.
• 1) 6×his-sumo-mSTING (Supplier: HDB) • 2) 2′-Fluo-AHC-c-di GMP (BIOLOG #F009) • 3) 23-cGAMP (BIOLOG #C161) • 4) DMXAA (InvivoGen #tlrl-dmx) • 5) DMSO (Sigma. #D5879-100 mL) • 6) 10×PBS(HDB #MCP-020) • 7) Assay plate, 384-well black plate, solid black bottom (Greiner #784076) • 8) Compound dilution intermediate plate, 384 LDV plate (Labcyte #LP-0200) • 9) Liquid handler, ECHO550 (Labcyte) • 10) Liquid handler, Bravo (Aglient) • 11) Reader, Envision (PerkinElmer) • 12) Centrifuge (Eppendorf) • 13) Multichannel Pipette (Raining) • 14) 10 ml Reservoir (Corning) • 15) 15 ml centrifuge tube (Corning) • 16) Adhesive Plate seals (BioRad) Compound Preparation • a) Containers of each compound were centrifuged at 1000 rpm for 5 min. • b) Compounds were dissolved in DMSO at 30 mM. • c) Compounds were sufficiently vortexed, and centrifuged at 1000 rpm for 1 min. • d) 16 uL of the compound solution was transferred into a LDV Compound Plate. • e) 2-fold serial dilutions of the compound solution were made with DMSO, and 14 concentrations were made in the 384-well LDV Compound Plate. • f) The LDV plate was spun at 1000 rpm for 60 sec and sealed with foil (stored at −20° C. if not used immediately). • g) 335 nL of each compound from the LDV Compound Plate was transferred to Assay Plate (ECHO550). Probe Preparation • a) 200 uM probe stock (2′-Fluo-AHC-c-diGMP) was diluted by dd2O to 6 uM working concentration. • b) 10-12 uL 6 uM working solution of probe was transferred into the LDV plate. • c) 50 nL per well 6 uM working solution of probe was transferred from the LDV plate to each well of the empty Assay Plate (Greiner 784076) by ECHO550 Buffer mode. • d) Probe final concentration was 30 nM when assay system was 10 uL. • e) The Assay Plate was spun at 1000 rpm for 1 min. Compound Addition • a) After the LDV Compound Plate was prepared, 100 nL compound (ECHO550 DMSO mode) was transferred from the LDV Compound Plate into the Assay Plate (Greiner 784076) containing 50 nL probe in each well according to the Assay Plate layout. • b) DMSO final concentration was 1% when assay system was 10 uL. • c) The Assay Plate was spun at 1000 rpm for 1 min. Protein Addition • a) Aliquot of 6×his-sumo-mSTING protein was thawed on ice, briefly to generate uniform solution. • b) 66 uM stock protein was diluted in 1×PBS assay buffer to generate 8 uM final solutions. • c) For test compound and ZPE wells, 10 μL per well of 8 uM protein solutions was added into the Assay Plate containing both the probe and test compounds or DMSO using multichannel pipette. • d) For HPE wells, 10 µL/well of 1×PBS assay buffer instead of protein was added into the Assay Plate containing both the probe and DMSO using multichannel pipette. • e) The Assay Plate was spun at 1000 rpm for 1 min. • f) The Assay Plate was incubated at r.t. for 10-20 min.
(§2) The EnVision plate reader was used to record the FA value of each well immediately after mixing the reagents or after a few hours without change of signals.
(§3) The raw data and calculated data (Fluorescence anisotropy (FA)) was exported from the EnVision reader. […]

hSTING-CTD = hSTING-CTD (Homo sapiens (Human), UniProt Q86WV6); experiment: Human STING protein FP competition concentration response assay; format: binding
hSTING-CTD, sequence (Q86WV6 135-379): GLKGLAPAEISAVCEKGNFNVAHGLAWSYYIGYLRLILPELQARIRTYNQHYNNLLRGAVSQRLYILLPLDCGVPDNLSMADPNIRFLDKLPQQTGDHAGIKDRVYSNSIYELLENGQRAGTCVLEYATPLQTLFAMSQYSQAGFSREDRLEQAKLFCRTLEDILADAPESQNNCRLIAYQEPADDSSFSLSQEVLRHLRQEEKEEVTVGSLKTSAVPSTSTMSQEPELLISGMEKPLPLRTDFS
Method: as §1
Fluorescein labeled c-di-GMP, a validated STING ligand, was mixed with recombinant hSTING-CTD in a homogenous assay format with or without the presence of a compound of the present application (titrated) in PBS in black 384-well plates (10 μL per well). The fluorescence anisotropy was determined on a PerkinElmer EnVisions multi-mode plate reader. The plate can be read immediately after mixing the reagents or after a few hours without change of signals.
• 1) hSTING (Supplier: HDB) • 2) 2′-Fluo-AHC-c-di GMP (BIOLOG #F009) • 3) 2′3′-cGAMP (BIOLOG #C161) • 4) DMXAA (InvivoGen #tlrl-dmx) • 5) DMSO (Sigma, #D5879-100 mL) • 6) 10×PBS(HDB #MCP-020) • 7) Assay plate, 384-well black plate, solid black bottom (Greiner #784076) • 8) Compound dilution intermediate plate, 384 LDV plate (Labcyte #LP-0200) • 9) Liquid handler, ECHO550 (Labcyte) • 10) Liquid handler, Bravo (Aglient) • 11) Reader, Envision (PerkinElmer) • 12) Centrifuge (Eppendorf) • 13) Multichannel Pipette (Raining) • 14) 10 ml Reservoir (Corning) • 15) 15 ml centrifuge tube (Corning) • 16) Adhesive Plate seals (BioRad) Compound Preparation • a) Containers of each compound were centrifuged at 1000 rpm for 5 min. • b) Compounds were dissolved in DMSO at 30 mM. • c) Compounds were sufficiently vortexed, and centrifuged at 1000 rpm for 1 min. • d) 16 uL of the compound solution was transferred into a LDV Compound Plate. • e) 2-fold serial dilutions of the compound solution were made with DMSO, and 14 concentrations were made in the 384-well LDV Compound Plate. • f) The LDV plate was spun at 1000 rpm for 60 sec and sealed with foil (stored at −20° C. if not used immediately). • g) 335 nL of each compound from the LDV Compound Plate was transferred to Assay Plate (ECHO550). Probe Preparation • a) 200 uM probe stock (2′-Fluo-AHC-c-diGMP) was diluted by ddH2O to 6 uM working concentration. • b) 10-12 uL 6 uM working solution of probe was transferred into the LDV plate. • c) 50 nL per well 6 uM working solution of probe was transferred from the LDV plate to each well of the empty Assay Plate (Greiner 784076) by ECHO550 Buffer mode. • d) Probe final concentration was 30 nM when assay system was 10 uL. • e) The Assay Plate was spun at 1000 rpm for 1 min. Compound Addition • a) After the LDV Compound Plate was prepared, 335 nL compound (ECHO550 DMSO mode) was transferred from the LDV Compound Plate into the Assay Plate (Greiner 784076) containing 50 nL probe in each well according to the Assay Plate layout. • b) DMSO final concentration was 3.35% when assay system was 10 uL. • c) The Assay Plate was spun at 1000 rpm for 1 min. Protein Addition • a) Aliquot of hSTING protein was thawed on ice, briefly to generate uniform solution. • b) 55 uM stock protein was diluted in 1×PBS assay buffer to generate 10 uM final solutions. • c) For test compound and ZPE wells, 10 μL per well of 10 uM protein solutions was added into the Assay Plate containing both the probe and test compounds or DMSO using multichannel pipette. • d) For HPE wells, 10 μL/well of 1×PBS assay buffer instead of protein was added into the Assay Plate containing both the probe and DMSO using multichannel pipette. • e) The Assay Plate was spun at 1000 rpm for Imin. • f) The Assay Plate was incubated at r.t. for 10-20 min.
as §2, §3

mSTING-CTD, sequence (Q3TBT3 134-378): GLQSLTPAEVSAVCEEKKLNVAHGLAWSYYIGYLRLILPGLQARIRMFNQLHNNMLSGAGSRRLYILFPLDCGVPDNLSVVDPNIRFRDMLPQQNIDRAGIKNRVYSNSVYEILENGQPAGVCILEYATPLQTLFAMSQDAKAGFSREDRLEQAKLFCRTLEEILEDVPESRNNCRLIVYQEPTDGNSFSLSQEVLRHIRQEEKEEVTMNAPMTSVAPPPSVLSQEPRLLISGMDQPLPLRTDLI

Compound | pIC50 (mSTING-CTD) | pIC50 (hSTING-CTD)
O=C(O)Cn1c2ccccc2c(=O)c2c(F)cccc21 [Compound 1] | 4.00 to 4.30 | –
O=C(O)Cn1c2ccccc2c(=O)c2c(Cl)cccc21 [Compound 2] | 4.00 to 4.30 | –
Cc1cccc2c1c(=O)c1ccccc1n2CC(=O)O [Compound 3] | 4.30 to 5.00 | –
O=C(O)Cn1c2ccccc2c(=O)c2ccc(F)cc21 [Compound 4] | 4.30 to 5.00 | –
O=C(O)Cn1c2ccccc2c(=O)c2ccc(Cl)cc21 [Compound 5] | 4.30 to 5.00 | –
Cc1ccc2c(=O)c3ccccc3n(CC(=O)O)c2c1 [Compound 6] | 4.30 to 5.00 | –
Cc1cccc2c(=O)c3ccccc3n(CC(=O)O)c12 [Compound 7] | 4.30 to 5.00 | < 3.00
O=C(O)Cn1c2ccccc2c(=O)c2cccc(Cl)c21 [Compound 8] | 4.30 to 5.00 | < 3.00
O=C(O)Cn1c2ccccc2c(=O)c2ccc3c(c21)CCCC3 [Compound 9] | > 5.00 | 3.00 to 3.30
Cc1ccc2c(c1)c(=O)c1ccccc1n2CC(=O)O [Compound 10] | 4.30 to 5.00 | < 3.00
Cc1ccc2c(=O)c3cccc(C)c3n(CC(=O)O)c2c1 [Compound 11] | > 5.00 | 3.00 to 3.30
Cc1ccc2c(=O)c3cccc(Cl)c3n(CC(=O)O)c2c1 [Compound 12] | > 5.00 | 3.00 to 3.30
Cc1ccc2c(=O)c3c(C)cccc3n(CC(=O)O)c2c1 [Compound 14] | 4.30 to 5.00 | –
Cc1ccc2c(=O)c3ccc(C)cc3n(CC(=O)O)c2c1 [Compound 15] | 4.30 to 5.00 | < 3.00
Cc1ccc2c(=O)c3c(Cl)cccc3n(CC(=O)O)c2c1 [Compound 16] | 4.30 to 5.00 | –
Cc1ccc2c(=O)c3ccc(Cl)cc3n(CC(=O)O)c2c1 [Compound 17] | 4.30 to 5.00 | 3.00 to 3.30
O=C(O)Cn1c2ccccc2c(=O)c2ccc(Br)cc21 [Compound 18] | 4.30 to 5.00 | –
Cc1ccc2c(=O)c3ccccc3n(CC(=O)O)c2c1Cl [Compound 19] | 4.30 to 5.00 | < 3.00

Compound | pIC50 (mSTING-CTD) | pIC50 (hSTING-CTD)
O=C(O)Cn1c2ccccc2c(=O)c2c(Br)cccc21 [Compound 20] | 4.00 to 4.30 | –
O=C(O)Cn1c2ccccc2c(=O)c2cc(Br)ccc21 [Compound 21] | < 4.00 | –
O=C(O)Cn1c2ccccc2c(=O)c2cc(C#Cc3ccccc3)ccc21 [Compound 22] | 4.30 to 5.00 | 3.00 to 3.30
O=C(O)Cn1c2ccccc2c(=O)c2cc(CCc3ccccc3)ccc21 [Compound 23] | 4.30 to 5.00 | 3.30 to 4.00
O=C(O)Cn1c2ccccc2c(=O)c2ccc(C#Cc3ccccc3)cc21 [Compound 25] | 4.30 to 5.00 | –
O=C(O)Cn1c2ccccc2c(=O)c2ccc(CCc3ccccc3)cc21 [Compound 26] | > 5.00 | 3.00 to 3.30
Cc1c(CCc2ccccc2)ccc2c(=O)c3ccccc3n(CC(=O)O)c12 [Compound 27] | 4.00 to 4.30 | < 3.00
Cc1c(C2=CCCCC2)ccc2c(=O)c3ccccc3n(CC(=O)O)c12 [Compound 28] | 4.30 to 5.00 | 3.00 to 3.30
Cc1ccc2c(=O)c3ccc(Cl)c(Cl)c3n(CC(=O)O)c2c1 [Compound 29] | 4.30 to 5.00 | 3.30 to 4.00
COc1cccc2c1c(=O)c1ccc(C)cc1n2CC(=O)O [Compound 32] | < 4.00 | –
Cc1ccc2c(=O)c3ccc(F)cc3n(CC(=O)O)c2c1 [Compound 33] | 4.30 to 5.00 | –
COc1ccc2c(=O)c3ccc(C)cc3n(CC(=O)O)c2c1 [Compound 34] | 4.30 to 5.00 | < 3.00
COc1ccc2c(=O)c3c(C)cccc3n(CC(=O)O)c2c1 [Compound 35] | 4.30 to 5.00 | –
Cc1ccc2c(=O)c3c(F)cccc3n(CC(=O)O)c2c1 [Compound 36] | 4.30 to 5.00 | –
CC(C)(C)c1ccc2c(=O)c3ccc(Cl)c(Cl)c3n(CC(=O)O)c2c1 [Compound 47] | 4.30 to 5.00 | > 4.00
Cc1ccc2c(=O)c3ccc(Br)cc3n(CC(=O)O)c2c1 [Compound 53] | 4.30 to 5.00 | 3.30 to 4.00
O=C(O)Cn1c2cc(NC3CCCCC3)ccc2c(=O)c2ccc(Cl)c(Cl)c21 [Compound 59] | 4.30 to 5.00 | > 4.00
